Experimental data from paper PMC6525171, “15-deoxy-Δ^12,14-Prostaglandin J2 inhibits human soluble epoxide hydrolase by a dual orthosteric and allosteric mechanism” (Communications Biology, 2019).
Numbering of substitutions follows the chain as printed.

Experiments:
Format in all cases: biochemical
[1] = target: T1, human soluble epoxide hydrolase (hsEH CTD) (Homo sapiens, UniProt P34913, C522S); experiment: HPLC, UV and CD of purified covalent adduct; PHOME activity of adduct vs apoprotein
T1 construct: gene EPHX2; C-terminal domain, T230-M555
T1 sequence (P34913 230-555 C522S): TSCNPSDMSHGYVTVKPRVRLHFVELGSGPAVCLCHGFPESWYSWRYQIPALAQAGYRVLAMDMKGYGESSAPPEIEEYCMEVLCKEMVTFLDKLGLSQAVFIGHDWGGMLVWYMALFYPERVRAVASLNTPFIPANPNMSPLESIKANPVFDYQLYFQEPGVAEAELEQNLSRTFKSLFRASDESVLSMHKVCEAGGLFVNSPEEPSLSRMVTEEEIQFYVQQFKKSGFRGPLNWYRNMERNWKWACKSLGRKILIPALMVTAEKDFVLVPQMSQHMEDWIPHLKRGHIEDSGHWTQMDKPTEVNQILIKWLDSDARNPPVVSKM

[2] = target: T2, human soluble epoxide hydrolase (hsEH CTD) (Homo sapiens, UniProt P34913, C423S); experiment: as above
T2 construct: gene EPHX2; C-terminal domain, T230-M555
T2 sequence (P34913 230-555 C423S): T1 sequence (P34913 230-555 C522S) with C194S, S293C

[3] = target: T3, human soluble epoxide hydrolase (hsEH CTD) (Homo sapiens, UniProt P34913); experiment: X-ray crystal structure ([…] Å, non-covalent complex), STD-NMR; ESI-MS and LC-MS/MS of covalent adducts; Ki from PHOME fluorescence assay
T3 construct: gene EPHX2; C-terminal domain, T230-M555
T3 sequence (P34913 230-555): T1 sequence (P34913 230-555 C522S) with S293C

[4] = target: T4, human soluble epoxide hydrolase (hsEH CTD) (Homo sapiens, UniProt P34913, C423S/C522S); experiment: PHOME spectrofluorimetric assay, Ki by Cheng-Prusoff
T4 construct: gene EPHX2; C-terminal domain, T230-M555
T4 sequence (P34913 230-555 C423S/C522S): T1 sequence (P34913 230-555 C522S) with C194S

Ki [3]: 13 µM
Ki [4]: 8.56 µM
SMILES: CCCCC/C=C/C=C1/C(=O)C=C[C@@H]1C/C=C/CCCC(=O)O [15d-PGJ2]
HPLC, UV and CD of purified covalent adduct; PHOME activity of adduct vs apoprot [1]: with the single modification of C423S and C522S mutants inhibiting the enzyme to a lesser extent
HPLC, UV and CD of purified covalent adduct; PHOME activity of adduct vs apoprot [2]: with the single modification of C423S and C522S mutants inhibiting the enzyme to a lesser extent
